The text below walks through data of patent publication US20230105212A1, “BIPHENYL DERIVATIVE INHIBITOR, PREPARATION METHOD THEREFOR AND USE THEREOF” (SHANGHAI HANSOH BIOMEDICAL CO., LTD., priority 2020, published 2023).

Experiment [1] has as its target T1, PD-L1 protein on the surface of MC38-hPDL1 tumor cells (Homo sapiens, UniProt Q9NZQ7).
T1 construct: expressed in transfected cells; host or cells: MC38-hPDL1 (mouse colon cancer cells)
In words: Induction of endocytosis of PD-L1 on the surface of tumor cells (flow cytometry). Type of experiment: cell-based. The conditions noted are these: 16 hours incubation; for Emax: MC38-hPDL1 cells, read-out: MC38 maximum endocytosis rate; for IC50: inducing endocytosis of PD-L1, MC38-hPDL1 cells, read-out: MC38 IC50. The essentials:
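MC38-hPDL1 mouse colon cancer cells overexpressing human PD-L1 were exposed to compound dilutions for 16 h at 37 °C. Surface PD-L1 was then stained with PE anti-human CD274 for 30 min at room temperature and measured by flow cytometry. Endocytosis rate versus concentration was fitted by nonlinear regression to give IC50.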

A further experiment concerns the target T2, human PD-L1 protein (Homo sapiens, UniProt Q9NZQ7).
T2 construct: purchased Acro Biosystems PD1-H5229
In words: Thermal shift: melting temperature of PD-L1 protein. The conditions noted are these: compound 10 μM, PD-L1 protein 2 μM, Tm minus DMSO vehicle control; read-out: ΔTm (° C.). In kind it is binding. As for the experimental part:
Test Embodiment 4. Test of Combination of the Compounds of the Present Disclosure to Improve the Stability (Melting Temperature) of PD-L1 Protein Experimental purpose: To test the ability of compounds to enhance the stability of PD-L1 protein and increase the melting temperature of the protein. Experimental method: […] A solution containing […] HEPES, SYPRO Orange, and 150 mM NaCl was prepared as experimental buffer, and human PD-L1 protein was added at a final concentration of 2 μM. […] PCR tube was put into the PCR machine, and the melt curve function was selected to detect the melting temperature of PD-L1 protein in different treatment groups (heated from 25° C. to 95° C., 0.03° C./s). The experimental data file of the PCR instrument was imported into the thermal shift software to obtain the melting temperature (Tm) of each treatment group, and the Tm of the DMSO vehicle control group was subtracted to obtain the change value (ΔTm) of the melting temperature, as shown in the following table: […]

Broadly, the ΔTm is the change in melting temperature against a reference sample. Broadly, the IC50 is the concentration that gives 50% inhibition.

T2 sequence (Q9NZQ7 19-238 limits assumed): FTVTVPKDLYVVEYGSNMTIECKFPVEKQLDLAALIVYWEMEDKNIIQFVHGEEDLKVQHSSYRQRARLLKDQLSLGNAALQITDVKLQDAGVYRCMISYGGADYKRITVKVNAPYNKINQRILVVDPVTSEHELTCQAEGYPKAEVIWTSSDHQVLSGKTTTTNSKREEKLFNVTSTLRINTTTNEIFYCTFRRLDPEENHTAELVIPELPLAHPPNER
T1 sequence (Q9NZQ7 19-290): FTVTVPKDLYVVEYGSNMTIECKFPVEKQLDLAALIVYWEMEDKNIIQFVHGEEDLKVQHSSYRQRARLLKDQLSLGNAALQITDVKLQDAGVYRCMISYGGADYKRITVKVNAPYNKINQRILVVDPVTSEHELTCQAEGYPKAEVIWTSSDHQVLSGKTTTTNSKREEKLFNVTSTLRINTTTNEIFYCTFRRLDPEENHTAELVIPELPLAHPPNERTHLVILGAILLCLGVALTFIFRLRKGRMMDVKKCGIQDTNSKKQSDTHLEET

For `COc1nc(-c2cccc(-c3cccc(NC(=O)c4nc5c(n4C)CCN(C)C5)c3Cl)c2Cl)ccc1CN1CC2CC(C1)N2C(C)=O` [Embodiment 206, N-(3′-(5-((6-Acetyl-3,6-diazabicyclo[3.1.1]heptan-3-yl)methyl)-6-methoxypyridin-2-yl)-2,2′-dichloro-[1,1′-biphenyl]-3-yl)-1,5-dimethyl-4,5,6,7-tetrahydro-1H-imidazo[4,5-c]pyridine-2-carboxamide], the Emax in experiment [1] was found to be 90%. Besides, the ΔTm at 10 µM on human PD-L1 protein is 11.6 °C.

On to `COc1nc(-c2cccc(-c3cccc(NC(=O)c4nc5c(n4C)CCN(C)C5)c3Cl)c2Cl)ccc1CN1C2CC1CN(C(=O)C(C)C)C2` [Embodiment 210, N-(2,2′-Dichloro-3′-(5-((3-isobutyryl-3,6-diazabicyclo[3.1.1]heptan-6-yl)methyl)-6-methoxypyridin-2-yl)-[1,1′-biphenyl]-3-yl)-1,5-dimethyl-4,5,6,7-tetrahydro-1H-imidazo[4,5-c]pyridine-2-carboxamide], for which the Emax in experiment [1] amounted to 88%. On human PD-L1 protein, the ΔTm at 10 µM was 10.7 °C.

Turning to `COc1nc(-c2cccc(-c3cccc(NC(=O)c4nc5c(n4C)CCN(C)C5)c3Cl)c2Cl)ccc1CN1CCC(C#N)CC1` [Embodiment 211, N-(2,2′-Dichloro-3′-(5-((4-cyanopiperidin-1-yl)methyl)-6-methoxypyridin-2-yl)-[1,1′-biphenyl]-3-yl)-1,5-dimethyl-4,5,6,7-tetrahydro-1H-imidazo[4,5-c]pyridine-2-carboxamide], in experiment [1], the Emax was determined as 95% and the IC50 was 3.1 nM. In addition, on human PD-L1 protein, the ΔTm at 10 µM amounted to 14.6 °C.

As for `COc1nc(-c2cccc(-c3cccc(NC(=O)c4nc5c(n4C)CCN(C)C5)c3Cl)c2Cl)ccc1CN1CCC(C)(C#N)CC1` [Embodiment 212, N-(2,2′-Dichloro-3′-(5-((4-cyano-4-methylpiperidin-1-yl)methyl)-6-methoxypyridin-2-yl)-[1,1′-biphenyl]-3-yl)-1,5-dimethyl-4,5,6,7-tetrahydro-1H-imidazo[4,5-c]pyridine-2-carboxamide], in experiment [1], the Emax came out at 94% and the IC50 worked out at 11.6 nM. The ΔTm at 10 µM on human PD-L1 protein turned out to be 14.9 °C.

Turning to `COc1nc(-c2cccc(-c3cccc(NC(=O)c4nc5c(n4C)CCN(C)C5)c3Cl)c2Cl)ccc1CNCC1(C#N)CC1` [Embodiment 213, N-(2,2′-Dichloro-3′-(5-((((1-cyanocyclopropyl)methyl)amino)methyl)-6-methoxypyridin-2-yl)-[1,1′-biphenyl]-3-yl)-1,5-dimethyl-4,5,6,7-tetrahydro-1H-imidazo[4,5-c]pyridine-2-carboxamide], in experiment [1], the Emax was 96% and the IC50 stood at 4.1 nM. At human PD-L1 protein, the ΔTm at 10 µM worked out at 14.5 °C.

Take `CCn1c(C(=O)Nc2cccc(-c3cccc(-c4ccc(CNC5COC5)c(OC)n4)c3Cl)c2Cl)nc2c1CCN(C)C2` [Embodiment 236, N-(2,2′-Dichloro-3′-(6-methoxy-5-((oxetan-3-ylamino)methyl)pyridin-2-yl)-[1,1′-biphenyl]-3-yl)-1-ethyl-5-methyl-4,5,6,7-tetrahydro-1H-imidazo[4,5-c]pyridine-2-carboxamide]: the Emax in experiment [1] amounted to 90%. Also, the ΔTm at 10 µM on human PD-L1 protein amounted to 10.6 °C.
